{"source": "patent US5047521A", "about": "“5-fluorouracil derivatives” (Otsuka Pharmaceutical Co., Ltd., priority 1986, dated 1991)", "test_system": "Sarcoma-180", "assay": "Pharmacological Test I: tumor weight in ICR mice subcutaneously transplanted with Sarcoma-180, oral administration", "type": "in vivo", "details": "Mus musculus, Sarcoma-180, 240 h, once a day for 7 consecutive days, tumor weight on 10th day after transplantation, read-out: ED50 (50% tumor inhibition dose, T/C = 0.5)", "protocol": "Sarcoma-180 subcultured in an ascites of ICR mice was diluted with a physiological saline solution and subcutaneously transplanted into the backs of ICR mice in an amount of 2×10^7 cells each. Twenty-four hours after the transplantation, a test compound suspended in a 5% solution of gum arabic was orally administered to each of mice once a day for 7 consecutive days.\nThe solid tumor was isolated from under the dorsal skin of mice on the 10th day after the transplantation to measure the weight of the tumor. There was determined the ratio (T/C) of the weight of tumor (T) cut out from the group of mice treated with the test compound to the weight of tumor (C) from the group of mice not treated therewith. The 50% tumor inhibition dose (ED50 value) in which T/C is 0.5 was determined from the dose-response curve of dosage and the ratio (T/C)."}
{"smiles": "CCC(=O)OC[C@H]1O[C@@H](n2cc(F)c(=O)[nH]c2=O)C[C@@H]1OCc1cccs1", "values": [{"measurement": "ED50", "value": 2, "unit": "mg/kg"}]}
